Assay results: ChEMBL document CHEMBL5143740, “Discovery of Novel Phosphoinositide-3-Kinase α Inhibitors with High Selectivity, Excellent Bioavailability, and Long-Acting Efficacy for Gastric Cancer” (J Med Chem, 2022)
Active and inactive are the calls of the source. No cut-off for these calls is given here.

Key:
SK-OV-3 = assay: Antiproliferative activity against human SK-OV-3 cells assessed as inhibition of cell growth incubated for 72 hrs by CCK8 assay; assay type: functional, cell-based; conditions: SK-OV-3, 72 h
[1] = biological target: T1, Phosphatidylinositol 4,5-bisphosphate 3-kinase catalytic subunit delta isoform (Homo sapiens, UniProt O00329); assay: Inhibition of PI3Kdelta (unknown origin) in presence of [33P]-ATP incubated for 2 hrs by hotspot kinase assay
T1 sequence (O00329 whole entry): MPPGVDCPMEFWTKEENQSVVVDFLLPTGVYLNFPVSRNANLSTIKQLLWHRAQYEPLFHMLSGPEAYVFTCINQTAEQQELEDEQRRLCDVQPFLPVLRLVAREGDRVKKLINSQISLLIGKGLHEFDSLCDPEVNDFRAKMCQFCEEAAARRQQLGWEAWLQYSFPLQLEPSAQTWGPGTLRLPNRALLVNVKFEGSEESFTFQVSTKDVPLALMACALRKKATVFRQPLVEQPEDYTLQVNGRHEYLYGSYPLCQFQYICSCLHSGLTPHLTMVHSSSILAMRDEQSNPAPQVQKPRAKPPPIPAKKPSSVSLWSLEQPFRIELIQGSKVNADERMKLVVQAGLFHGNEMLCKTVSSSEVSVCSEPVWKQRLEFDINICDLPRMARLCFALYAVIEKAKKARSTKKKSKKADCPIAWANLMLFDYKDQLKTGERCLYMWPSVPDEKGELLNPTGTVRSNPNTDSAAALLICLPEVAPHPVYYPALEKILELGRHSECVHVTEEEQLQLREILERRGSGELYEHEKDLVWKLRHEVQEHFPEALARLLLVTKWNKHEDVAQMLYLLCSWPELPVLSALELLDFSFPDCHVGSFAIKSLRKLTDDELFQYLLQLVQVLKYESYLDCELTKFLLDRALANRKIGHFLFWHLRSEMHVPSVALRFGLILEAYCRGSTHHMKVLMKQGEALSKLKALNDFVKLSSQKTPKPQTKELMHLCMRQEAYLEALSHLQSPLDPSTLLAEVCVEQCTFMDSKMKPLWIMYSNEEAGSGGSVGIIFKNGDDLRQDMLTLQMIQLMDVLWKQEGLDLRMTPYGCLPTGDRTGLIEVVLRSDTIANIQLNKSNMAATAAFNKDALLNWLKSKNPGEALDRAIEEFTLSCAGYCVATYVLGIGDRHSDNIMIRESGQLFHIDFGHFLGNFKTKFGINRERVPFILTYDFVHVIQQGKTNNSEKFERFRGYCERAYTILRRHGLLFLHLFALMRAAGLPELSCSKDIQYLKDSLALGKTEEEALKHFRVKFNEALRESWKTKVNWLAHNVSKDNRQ

MGC-803 [2] = assay: Antitumor activity against human MGC-803 cells xenografted in BALB/c nude mouse assessed as reduction in tumor volume at 30 mg/kg, po administered every day for 3 weeks by vernier caliper method; assay type: functional, organism-based
[3] = Oral bioavailability in Sprague-Dawley rat at 10 mg/kg measured after 24 hrs; assay type: ADME, organism-based; conditions: in vivo
[4] = biological target: Phosphatidylinositol 4,5-bisphosphate 3-kinase catalytic subunit alpha isoform (Homo sapiens, UniProt P42336); assay: Inhibition of PI3Kalpha (unknown origin) using PIP2 as substrate in presence of ATP measured after 1 hr by ADP-Glo assay
Phosphatidylinositol 4,5-bisphosphate 3-kinase catalytic subunit alpha isoform, sequence (P42336 whole entry, canonical isoform): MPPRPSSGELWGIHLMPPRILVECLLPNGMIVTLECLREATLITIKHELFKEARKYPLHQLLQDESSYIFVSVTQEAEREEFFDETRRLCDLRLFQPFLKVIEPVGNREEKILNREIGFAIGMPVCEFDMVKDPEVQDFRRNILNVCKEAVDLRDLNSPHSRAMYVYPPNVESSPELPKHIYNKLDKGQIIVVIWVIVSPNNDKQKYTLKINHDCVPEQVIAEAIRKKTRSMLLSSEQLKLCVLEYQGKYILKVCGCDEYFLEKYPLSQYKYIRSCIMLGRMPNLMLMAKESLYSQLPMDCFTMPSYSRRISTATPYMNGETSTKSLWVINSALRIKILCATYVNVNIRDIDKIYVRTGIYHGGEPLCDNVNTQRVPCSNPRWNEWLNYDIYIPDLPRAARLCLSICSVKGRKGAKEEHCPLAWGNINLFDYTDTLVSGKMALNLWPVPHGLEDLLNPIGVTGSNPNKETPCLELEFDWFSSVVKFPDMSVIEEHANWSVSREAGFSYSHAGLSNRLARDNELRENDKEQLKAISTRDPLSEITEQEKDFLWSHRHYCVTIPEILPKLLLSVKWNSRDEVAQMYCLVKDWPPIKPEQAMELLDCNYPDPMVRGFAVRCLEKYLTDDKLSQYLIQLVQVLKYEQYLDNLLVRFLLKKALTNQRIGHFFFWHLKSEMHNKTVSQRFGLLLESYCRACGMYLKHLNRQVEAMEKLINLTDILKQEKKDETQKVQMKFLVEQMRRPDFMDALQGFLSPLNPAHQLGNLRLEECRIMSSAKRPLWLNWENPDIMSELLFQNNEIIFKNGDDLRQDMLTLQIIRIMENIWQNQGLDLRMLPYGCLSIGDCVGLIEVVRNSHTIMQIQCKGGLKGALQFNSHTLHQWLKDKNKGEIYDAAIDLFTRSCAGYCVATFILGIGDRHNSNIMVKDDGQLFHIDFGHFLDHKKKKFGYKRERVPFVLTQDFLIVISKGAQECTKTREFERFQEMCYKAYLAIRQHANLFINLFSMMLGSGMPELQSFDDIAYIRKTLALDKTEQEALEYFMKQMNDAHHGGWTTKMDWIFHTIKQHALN

MGC-803 [5] = assay: Inhibition of cell migration in human MGC-803 cells at 2 to 8 uM incubated for 24 hrs by crystal violet staining based transwell migration assay; assay type: functional; conditions: dose 2-8 µM
MOLT-4 = assay: Antiproliferative activity against human MOLT-4 cells assessed as inhibition of cell growth incubated for 72 hrs by CCK8 assay; assay type: functional, cell-based; conditions: MOLT-4, 72 h
MDA-MB-231 = assay: Antiproliferative activity against human MDA-MB-231 cells assessed as inhibition of cell growth incubated for 72 hrs by CCK8 assay; assay type: functional, cell-based; conditions: MDA-MB-231, 72 h
[6] = Half life in Sprague-Dawley rat at 1 mg/kg, iv measured after 24 hrs; assay type: ADME, organism-based; conditions: in vivo
MCF7 = assay: Antiproliferative activity against human MCF7 cells assessed as inhibition of cell growth incubated for 72 hrs by CCK8 assay; assay type: functional, cell-based; conditions: MCF7, 72 h
MGC-803 [7] = assay: Induction of apoptosis in human MGC-803 cells assessed as early apoptotic cells at 2 uM incubated for 36 hrs by annexin V-FITC based flow cytometry analysis (reference value: 2.49 %); assay type: functional
MGC-803 [8] = assay: Induction of apoptosis in human MGC-803 cells assessed as late apoptotic cells at 4 uM incubated for 36 hrs by annexin V-FITC based flow cytometry analysis (reference value: 2.61 %); assay type: functional
MGC-803 [9] = assay: Inhibition of PI3K signalling pathway in human MGC-803 cells assessed as reduction in P70S6K phosphorylation at 2 to 8 uM by Western blotting analysis; assay type: cell-based; conditions: dose 2-8 µM

IC50 (SK-OV-3): 430 nM
IC50 [1]: 153 nM
bioavailability [3]: 130%
IC50 [4]: 4.4 nM
IC50 (MOLT-4): 430 nM
IC50 (MDA-MB-231): 430 nM
half-life [6]: 6.29 h
IC50 (MCF7): 430 nM
Compound: Nc1nc2cc(-c3nc(N4CCOCC4)nc(N4CCOCC4)n3)ccc2o1
Activity (MGC-803 [2]): Active
inhibition (MGC-803 [5]): Active
Activity (MGC-803 [7]): 7.52%
Activity (MGC-803 [8]): 5.01%
inhibition (MGC-803 [9]): Active
